Test results taken from BindingDB's records for doi:10.1021/acs.jmedchem.5b01008 (Pfizer, 2015).
pIC50: −log10 of the molar value. Where “and” joins values, the source holds several entries; their conditions need not be identical. Equal values may be shown once.

Tests used:
[1] = biological target: 2-acylglycerol O-acyltransferase 3 (MGAT3, MOGAT3) (Homo sapiens) (UniProt Q86VF5); assay: Inhibition of MGAT3 (unknown origin) assessed effect on incorporation of [1-14C]decanoyl moiety into triacylglycerol using [1-14C]decanoyl-CoA and 1,2-didecanoyl-sn-glycerol as substrates pre-incubated for 30 mins before substrate addition
[2] = biological target: 2-acylglycerol O-acyltransferase 3 (MGAT3, MOGAT3) (Homo sapiens) (UniProt Q86VF5); assay: Inhibition of human MGAT3 expressed in HEK293 cells assessed as effect on incorporation of [1,3-14C] glycerol into TAG by TLC method in presence of DGAT1 inhibitor PF-04620110 and DGAT2 inhibitor PF-06424439
[3] = biological target: 2-acylglycerol O-acyltransferase 1 (MGAT1, MOGAT1) (Homo sapiens) (UniProt Q96PD6); assay: Inhibition of MGAT1 (unknown origin) assessed as effect on incorporation of [1-14C]decanoyl moiety into DAG using [1-14C]decanoyl-CoA and 2-oleoylglycerol as substrates
Chain of 2-acylglycerol O-acyltransferase 1 (MGAT1, MOGAT1) (Homo sapiens) (Q96PD6 whole entry, looked up): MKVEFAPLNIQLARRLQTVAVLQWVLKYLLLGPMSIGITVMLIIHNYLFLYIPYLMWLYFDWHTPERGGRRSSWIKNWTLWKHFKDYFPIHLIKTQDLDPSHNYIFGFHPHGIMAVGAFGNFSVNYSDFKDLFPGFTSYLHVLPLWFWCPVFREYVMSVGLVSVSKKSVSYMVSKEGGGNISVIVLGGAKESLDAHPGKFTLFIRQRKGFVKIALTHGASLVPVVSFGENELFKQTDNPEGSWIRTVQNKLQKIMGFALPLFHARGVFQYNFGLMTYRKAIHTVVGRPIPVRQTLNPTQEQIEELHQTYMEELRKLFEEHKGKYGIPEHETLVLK

Chain of 2-acylglycerol O-acyltransferase 3 (MGAT3, MOGAT3) (Homo sapiens) (Q86VF5 whole entry, looked up): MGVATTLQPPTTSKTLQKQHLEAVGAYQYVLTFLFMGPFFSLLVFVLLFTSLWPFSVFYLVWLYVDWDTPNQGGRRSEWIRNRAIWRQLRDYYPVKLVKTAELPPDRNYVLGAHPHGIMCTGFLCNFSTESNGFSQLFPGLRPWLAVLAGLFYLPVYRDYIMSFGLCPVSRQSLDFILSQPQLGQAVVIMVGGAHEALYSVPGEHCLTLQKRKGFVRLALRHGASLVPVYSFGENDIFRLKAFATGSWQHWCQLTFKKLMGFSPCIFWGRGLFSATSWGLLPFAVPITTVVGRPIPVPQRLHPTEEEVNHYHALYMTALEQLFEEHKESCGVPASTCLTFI

Row | Structure (SMILES) | pIC50 [1] | pIC50 [2] | pIC50 [3]
1 | COc1cccc(CC(=O)N2Cc3ccc(S(=O)(=O)Nc4cnn(C)n4)cc3C2)c1 | 5.42 and 5.40 |  | 
2 | COc1cccc(CC(=O)N2Cc3ccc(S(=O)(=O)Nc4cnn(C5COC5)n4)cc3C2)c1 | 6.44 and 6.40 |  | 
3 | COc1cccc(CC(=O)N2Cc3ccc(S(=O)(=O)Nc4cnn(-c5ccccc5)n4)cc3C2)c1 | 8.22 |  | 
4 | COc1cccc(CC(=O)N2Cc3ccc(S(=O)(=O)Nc4cnn(C5CC(F)(F)C5)n4)cc3C2)c1 |  | 6.40 and 6.41 | 
5 | COc1cccc(CC(=O)N2Cc3ccc(S(=O)(=O)Nc4cnn(C5CCC5)n4)cc3C2)c1 | 7.04 and 7.00 | 6.69 | 4.83
6 | COc1cccc(CC(=O)N2Cc3ccc(S(=O)(=O)N(C)CCc4cccc(F)c4)cc3C2)c1 | 5.56 and 5.60 |  | 
7 | COc1cccc(CC(=O)N2Cc3ccc(S(=O)(=O)Nc4cnn(-c5ccc(F)cc5)n4)cc3C2)c1 | 8.22 |  | 
8 | COc1cccc(CC(=O)N2Cc3ccc(S(=O)(=O)Nc4cnn(C(C)C)n4)cc3C2)c1 | 6.22 and 6.20 |  | 
9 | COc1cccc(CC(=O)N2Cc3ccc(S(=O)(=O)NCCc4cccc(F)c4)cc3C2)c1 | 6.17 and 6.20 |  | < 4.40
